Results reported in US10175256B2, “Compositions and methods utilizing lysophosphatidylcholine scaffolds” (National University Of Singapore, priority 2013, dated 2019).
“And” between values parts separate entries of the source, which are not always exact repeats. Equal entries are not always repeated.

Tests used:
Mfsd2a = biological target: T1, Mfsd2a (Mus musculus, UniProt Q9DA75); test: Competition transport assay with LPC-[3H]palmitate as ligand; format: cell-based; parameters: expressed in transfected cells; host or cells: HEK293; conditions: 25 μM LPC-[3H]palmitate; for competition for transport/uptake of LPC-[3H]palmitate: 10-fold molar excess (250 μM) competitor, 30 mins (PAF 15 mins)
T1 sequence (Q9DA75 1-534): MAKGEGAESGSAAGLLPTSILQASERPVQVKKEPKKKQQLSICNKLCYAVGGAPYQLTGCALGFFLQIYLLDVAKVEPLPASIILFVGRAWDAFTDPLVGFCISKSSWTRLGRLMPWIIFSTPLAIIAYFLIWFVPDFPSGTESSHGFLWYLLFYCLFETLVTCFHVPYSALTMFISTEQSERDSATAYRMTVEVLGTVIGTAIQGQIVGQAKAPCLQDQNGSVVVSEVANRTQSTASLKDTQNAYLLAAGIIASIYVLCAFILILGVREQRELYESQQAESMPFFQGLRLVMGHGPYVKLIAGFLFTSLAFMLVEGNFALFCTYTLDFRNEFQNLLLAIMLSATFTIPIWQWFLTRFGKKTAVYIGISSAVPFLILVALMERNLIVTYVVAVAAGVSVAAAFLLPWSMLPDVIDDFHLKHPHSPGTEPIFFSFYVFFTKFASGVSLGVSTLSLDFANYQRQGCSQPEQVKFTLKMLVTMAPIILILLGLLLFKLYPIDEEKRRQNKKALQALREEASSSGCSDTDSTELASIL
Description: Briefly, 24 h post transfection of HEK293 cells with pcDNA3.1Mfsd2a (WT), pcDNA3.1Mfsd2aD92A (D92A), pcDNA3.1Mfsd2aD96A, or pcDNA3.1 (mock) plasmids were washed once with serum-free DMEM medium before addition of a mixture of 25 μM radiolabeled LPC-palmitate and 250 μM cold competitors, which were dissolved in 12% BSA. Total BSA concentration was kept constant in samples with or without cold competitors. Assays were performed at 37° C. for 30 mins. Competition assays with other LPC analogs such as foscholine detergents, and PAF were performed under the same conditions except for 15 mins. The reduced reaction time was necessary in order to limit potential negative effects of detergents and bioactive lipids on cell survival. All assays were performed in 12 well-plates with triplicates and at 37° C.
We next sought to determine ligand specificity and the chemical features of the LPC ligands that are required for transport by Mfsd2a.

mouse Mfsd2a [1] = test: Cell-based free fatty acid transport/uptake in Mfsd2a expressing HEK293 cells (mass spectrometry, TLC; Table 1); conditions: for Amount of each lipid species, mol percent in total phospholipid analysed: mock HEK293 cells incubated with 100 uM Arachidonic fatty acid/BSA complex overnight; for Amount of each lipid species, mol percent in total phospholipid analysed / Amount of each lipid species normalized to internal standard, mol percent in total phospholipid analysed / Amount of lipid species, mol percent in total phospholipid analysed: MS, replicate columns; for Amount of lipid species, mol percent in total phospholipid analysed: 100 uM Oleic fatty acid/BSA complex overnight
Description: (§1) FIG. 12. […] Std: free [^14C]-DHA. b. TLC analysis of phospholipids and neutral lipids of HEK293 cells transfected with mouse Mfsd2a and mutants after overnight incubation with 100 μM [^14C]-oleate. TLC protocol used was described in Methods. PC: phosphatidylcholine, PE: phosphatidylethanolamine, TAG: triglyceride, CE: cholesteryl ester.
(§2) For tissue lipid analysis, brain, liver, and heart of female WT and KO mice with age of 7-8 weeks born to HET mothers, and brains from e18.5 embryos were collected and immediately frozen with liquid nitrogen until extraction. Lipid extraction was followed by chloroform/methanol method. For cell-based free fatty acid transport, lipids from HEK293 cells expressing mouse Mfsd2a and mock controls after overnight treatment with 100 μM docosahexaenoic, arachidonic, eicosapentaenoic, alpha-linolenic, linoleic, oleic, palmitic acids in BSA complex were extracted using HIP buffer (hexane:iso-propanol 3:2, per volume) and dried under N2 gas. Phospholipid species were measured by high performance liquid chromatography (HPLC) 1100 system (Agilent) coupled with an Triple Quadrupole/Ion Trap mass spectrometer (4000Qtrap, Applied Biosystem). Levels of individual phospholipid species were analyzed as described previously and quantified using spiked internal standards that includes PC-14:0/14:0, PE-14:0/14:0, PS-14:0/14:0 (Avanti Polar Lipids, Alabaster, Ala., USA), and dioctanoyl PI (Echelon Biosciences, Inc., Salt Lake City, Utah, USA).

mouse Mfsd2a [2] = biological target: T2, mouse Mfsd2a (Mus musculus, UniProt Q9DA75); test: as above; conditions: for Amount of each lipid species, mol percent in total phospholipid analysed: Mfsd2a expressing HEK293 cells incubated with 100 uM Arachidonic fatty acid/BSA complex overnight; for Amount of each lipid species, mol percent in total phospholipid analysed / Amount of lipid species, mol percent in total phospholipid analysed / Amount of each lipid species normalized to internal standard, mol percent in total phospholipid analysed: replicate columns; for Amount of lipid species, mol percent in total phospholipid analysed / Amount of each lipid species normalized to internal standard, mol percent in total phospholipid analysed: Mfsd2a expressing HEK293 cells
T2 construct: expressed in transfected cells; host or cells: HEK293
T2 sequence (Q9DA75 1-534): T1 sequence (Q9DA75 1-534)
Description: as §1, §2

[3] = mock HEK293 cells, 100 uM fatty acid/BSA overnight
[4] = Mfsd2a HEK293 cells, 100 uM fatty acid/BSA overnight
[5] = mock HEK293 cells, 100 uM Docosahexaenoic acid/BSA complex overnight
[6] = mock HEK293 cells, 100 uM Eicosapentaenoic acid/BSA complex overnight
[7] = 100 uM Alpha-linolenic fatty acid/BSA complex overnight
[8] = 100 uM Linoleic fatty acid/BSA complex overnight
[9] = 100 uM Docosahexaenoic acid/BSA complex overnight, MS
[10] = 100 uM Eicosapentaenoic acid/BSA complex overnight, MS
[11] = 100 uM Oleic fatty acid/BSA complex overnight, MS

## lysophosphatidylserine [LPS]
Mfsd2a
  competition for transport/uptake of LPC-[3H]palmitate: weak competition

## CCCCCCCCOP(=O)([O-])OCC[N+](C)(C)C [Fos-8]
Mfsd2a; 250 μM competitor, 15 mins
  competition of foscholines with LPC-[3H]palmitate: did not compete

## platelet activating factor
Mfsd2a
  competition for transport/uptake of LPC-[3H]palmitate: strong competitors
Mfsd2a; listed as PAF
  competition for transport/uptake of LPC-[3H]palmitate: strong competition

## CCCCCCCC/C=C\CCCCCCCC(=O)O [Oleic]
Mouse Mfsd2a [1]; [3]
  % DHA in PS: 0.107% and 0.1103% and 0.1249%
  PS(sum) in total phospholipid: 2.685 mol percent and 3.082 mol percent and 2.902 mol percent
  PS:36:1 in total phospholipid: 1.21 mol percent and 1.398 mol percent and 1.339 mol percent
  PS:36:2 in total phospholipid: 0.4461 mol percent and 0.5356 mol percent and 0.4546 mol percent
  PS:36:3 in total phospholipid: 0.0148 mol percent and 0.01325 mol percent and 0.01917 mol percent
  PS:38:2 in total phospholipid: 0.2083 mol percent and 0.235 mol percent and 0.2311 mol percent
  PS:38:3 in total phospholipid: 0.1326 mol percent and 0.1657 mol percent and 0.1369 mol percent
  PS:38:4 in total phospholipid: 0.07625 mol percent and 0.06869 mol percent and 0.07723 mol percent
  PS:38:5 in total phospholipid: 0.01081 mol percent and 0.01386 mol percent and 0.0115 mol percent
  PS:40:4 in total phospholipid: 0.09048 mol percent and 0.1018 mol percent and 0.09531 mol percent
  PS:40:5 in total phospholipid: 0.06829 mol percent and 0.04459 mol percent and 0.0619 mol percent
  PS:40:6 in total phospholipid: 0.09845 mol percent and 0.1006 mol percent and 0.1134 mol percent
  PS:40:7 in total phospholipid: 0.008536 mol percent and 0.00964 mol percent and 0.0115 mol percent
Mouse Mfsd2a [2]; [4]
  % DHA in PS: 0.1056% and 0.1088% and 0.1312% and 0.1092%
  PS(sum) in total phospholipid: 2.787 mol percent and 2.992 mol percent and 3.252 mol percent and 2.587 mol percent
  PS:36:1 in total phospholipid: 1.289 mol percent and 1.358 mol percent and 1.479 mol percent and 1.19 mol percent
  PS:36:2 in total phospholipid: 0.4671 mol percent and 0.4839 mol percent and 0.5719 mol percent and 0.4252 mol percent
  PS:36:3 in total phospholipid: 0.0188 mol percent and 0.02264 mol percent and 0.01888 mol percent and 0.01251 mol percent
  PS:36:4 in total phospholipid: 0.003419 mol percent and 0.003995 mol percent and 0.004969 mol percent and 0.003335 mol percent
  PS:38:2 in total phospholipid: 0.2325 mol percent and 0.2459 mol percent and 0.2529 mol percent and 0.1984 mol percent
  PS:38:3 in total phospholipid: 0.1257 mol percent and 0.1554 mol percent and 0.1491 mol percent and 0.1276 mol percent
  PS:38:4 in total phospholipid: 0.06539 mol percent and 0.08301 mol percent and 0.08249 mol percent and 0.07253 mol percent
  PS:38:5 in total phospholipid: 0.008121 mol percent and 0.01199 mol percent and 0.01093 mol percent and 0.01084 mol percent
  PS:40:4 in total phospholipid: 0.09916 mol percent and 0.08523 mol percent and 0.1014 mol percent and 0.07753 mol percent
  PS:40:5 in total phospholipid: 0.05001 mol percent and 0.05638 mol percent and 0.05863 mol percent and 0.05419 mol percent
  PS:40:6 in total phospholipid: 0.09445 mol percent and 0.09677 mol percent and 0.1222 mol percent and 0.0942 mol percent
  PS:40:7 in total phospholipid: 0.01111 mol percent and 0.01199 mol percent and 0.008944 mol percent and 0.01501 mol percent

## CCCCCCCCCCCCCCCCCCOC[C@@H](O)COP(=O)([O-])OCC[N+](C)(C)C [LysoPC18:0e]
Mouse Mfsd2a [1]
  Amount of each lipid species, mol percent in total phospholipid analysed: 0.00137 mol percent and 0.002231 mol percent and 0.001637 mol percent
Mouse Mfsd2a [1]; [5]
  Amount of each lipid species normalized to internal standard, mol percent in total phospholipid analysed: 0.002177 mol percent and 0.002156 mol percent and 0.002215 mol percent
Mouse Mfsd2a [1]; [6]
  Amount of each lipid species normalized to internal standard, mol percent in total phospholipid analysed: 0.001609 mol percent and 0.002109 mol percent and 0.001671 mol percent
Mouse Mfsd2a [1]; mock HEK293 cells
  Amount of lipid species, mol percent in total phospholipid analysed: 0.001802 mol percent and 0.00157 mol percent and 0.001773 mol percent
Mouse Mfsd2a [2]; MS
  Amount of each lipid species, mol percent in total phospholipid analysed: 0.001403 mol percent and 0.001832 mol percent and 0.001957 mol percent and 0.00156 mol percent
Mouse Mfsd2a [2]; [7]
  Amount of lipid species, mol percent in total phospholipid analysed: 0.001528 mol percent and 0.001007 mol percent and 0.001383 mol percent and 0.001468 mol percent
Mouse Mfsd2a [2]; [8]
  Amount of lipid species, mol percent in total phospholipid analysed: 0.00128 mol percent and 0.001885 mol percent and 0.001443 mol percent and 0.001726 mol percent
Mouse Mfsd2a [2]; [9]
  Amount of each lipid species normalized to internal standard, mol percent in total phospholipid analysed: 0.002316 mol percent and 0.001944 mol percent and 0.002079 mol percent and 0.002217 mol percent
Mouse Mfsd2a [2]; [10]
  Amount of each lipid species normalized to internal standard, mol percent in total phospholipid analysed: 0.002414 mol percent and 0.001699 mol percent and 0.001986 mol percent and 0.001832 mol percent
Mouse Mfsd2a [2]; [11]
  Amount of lipid species, mol percent in total phospholipid analysed: 0.002105 mol percent and 0.002254 mol percent and 0.001084 mol percent and 0.001841 mol percent

## CCCCCCCCCCCCCCCCCC(=O)OC[C@@H](O)COP(=O)([O-])OCC[N+](C)(C)C [LysoPC18:0]
Mouse Mfsd2a [1]
  Amount of each lipid species, mol percent in total phospholipid analysed: 0.006849 mol percent and 0.006628 mol percent and 0.006426 mol percent
Mouse Mfsd2a [1]; [5]
  Amount of each lipid species normalized to internal standard, mol percent in total phospholipid analysed: 0.008486 mol percent and 0.008947 mol percent and 0.009444 mol percent
Mouse Mfsd2a [1]; [6]
  Amount of each lipid species normalized to internal standard, mol percent in total phospholipid analysed: 0.006911 mol percent and 0.007615 mol percent and 0.006374 mol percent
Mouse Mfsd2a [1]; mock HEK293 cells
  Amount of lipid species, mol percent in total phospholipid analysed: 0.005105 mol percent and 0.004638 mol percent and 0.005658 mol percent
Mouse Mfsd2a [2]; MS
  Amount of each lipid species, mol percent in total phospholipid analysed: 0.006865 mol percent and 0.00639 mol percent and 0.005642 mol percent and 0.008281 mol percent
Mouse Mfsd2a [2]; [7]
  Amount of lipid species, mol percent in total phospholipid analysed: 0.008875 mol percent and 0.009786 mol percent and 0.00943 mol percent and 0.009646 mol percent
Mouse Mfsd2a [2]; [8]
  Amount of lipid species, mol percent in total phospholipid analysed: 0.006967 mol percent and 0.006454 mol percent and 0.007395 mol percent and 0.006903 mol percent
Mouse Mfsd2a [2]; [9]
  Amount of each lipid species normalized to internal standard, mol percent in total phospholipid analysed: 0.009464 mol percent and 0.008616 mol percent and 0.009301 mol percent and 0.008257 mol percent
Mouse Mfsd2a [2]; [10]
  Amount of each lipid species normalized to internal standard, mol percent in total phospholipid analysed: 0.006896 mol percent and 0.007974 mol percent and 0.005812 mol percent and 0.007684 mol percent
Mouse Mfsd2a [2]; [11]
  Amount of lipid species, mol percent in total phospholipid analysed: 0.005262 mol percent and 0.005101 mol percent and 0.005659 mol percent and 0.004823 mol percent
